From patent publication US8030284B2, “Treatment of eye disorders characterized by an elevated intraocular pressure by siRNAs” (Sylentis S.A.U., priority 2004, dated 2011)

Tests used:
[1] = tested on: normotensive New Zealand rabbit; assay: IOP reduction after topical application to the cornea; type: in vivo, New Zealand White rabbit; conditions: topical 40 ul to cornea, once daily for four days; control = contralateral eye with vehicle alone; mean of maximum reduction ± SEM
Description: The New Zealand rabbit is the gold standard in experimental platforms designed to study IOP. It is easy to handle and it has a big eye, similar in size to the human organ. In addition, present equipment to measure IOP is not suited to use in animals with small eyes such as mice or rats. Finally, rabbits have an IOP (around 23 mm Hg) that can be brought down to up to 40% its value using local commercial hypotensive medication. Thus, although it is possible to generate rabbit glaucoma models (for example, surgically blocking episclerotic veins or artificially occluding the trabecular meshwork), we have used normotensive rabbits since, in our hands, the pharmacological decrease in IOP can be easily and reproducibly measured.
Normotensive New Zealand White rabbits (males, 2-3 kg) were used. The animals were kept in individual cages with free access to food and water. They were submitted to artificial 12 hours light/darkness cycles, to avoid uncontrolled circadian oscillations of IOP Animal handling and treatment were carried out in accordance with the European Communities Council Directive (86/609/EEC) and the statement of the Association for Research in Vision and Ophthalmology on the Use of Animals in Ophthalmic and Vision Research.
The drugs were typically administered by instilling a small volume (typically 40 μL) on the corneal surface. Contralateral eyes were treated with the vehicle alone and could be used as controls in each experiment […] there is a sympathy phenomenon with the other eye. Multiple experiments in the same animal should be abolished.
IOP measurements were done using a contact tonometer (TONOPEN XL, Mentor, Norwell, Mass.). The TonoPen tonometer is very convenient due to its reliability and small size. Measurements with this instrument were performed delicately applying the tonometer's sensor to the corneal surface. […] All measurements fell within this interval: the mean baseline value of intraocular pressure was 17.0±0.39 mm Hg (n=100). […] In order to avoid distress to the animal, rabbits were topically anesthetized (oxibuprocaine/tetracaine, 0.4%/1%, in a saline solution (1/4 v:v). The solution was applied (10 μl) to the cornea before each measurement of intraocular pressure was made. siRNA or saline was applied topically to the cornea in volumes of 40 μl.
The standard protocol for the siRNA application in rabbit was as follows. Doses of siRNA in saline solution (0.9% w/v) to a final volume of 40 ul, were applied to one eye each day during four consecutive days. The opposite eye was taken as a control and 40 ul of sterile saline (0.9% w/v) were instilled on it, at the same time points. The IOP was measured before each application and at 2 h, 4 h and 6 h following the instillation, during 10 days. Maximum responses were observed between second and third day. To compare the effect of siRNA with other hypotensive compounds, Xalatan (latanoprost 0.005%) and Trustop (Dorzolamide 2%) were assayed and IOP measured in the same conditions.
Those siRNAs selected by the in vitro assays were applied to the animal model, following the protocol previously described. To avoid the effect of IOP fluctuations due to circadian cycles, all the applications were performed at the same time. To determine the siRNA effect, intraocular pressures (IOPs) were measured as previously mentioned.
The data are summarized in table II where values represent the mean of the maximum percentage of IOP reduction after siRNA treatment once normalized and their standard deviations. The decrease in IOP was statistically significant for all the treated targets. […] The siRNAs used in these experiments correspond to the human targets given in FIGS. 2A-2R as follows: • AC2: rabbit sequence homologous to human SEQ. ID. 73 • AC4: rabbit sequence identical to human SEQ. ID. 5 • AC12: rabbit sequence identical to human SEQ. ID. 522 • ADRB1: rabbit sequence identical to human SEQ. ID. 105 • ADRB2: rabbit sequence homologous to human SEQ. ID. […]

AC2 = assay: siRNA interference in cell cultures, real time PCR of AC2 transcript; type: cell-based, rabbit; conditions: normalized to actin relative to cell control, mean ± SD
Description: To check the specificity of the siRNA interference different cell cultures that express the target genes were employed. The cells used for these experiments were: rabbit non-pigmented ciliary epithelium cells NPE, human ciliary epithelium cells OMDC, and human embryonic kidney cells HEK293. The cells are incubated with the corresponding siRNA duplexes, and analysis of the downregulation of expression of the target gene is carried out.
Several examples of techniques well known in the art are as follows: We can perform a single transfection of siRNA duplex using a cationic lipid, such as RNAiFect Transfection Reagent (Qiagen) and Lipofectamine 2000 Reagent (Invitrogen) and assay for silencing 24, 48 and 72 hours after transfection.
A typical transfection protocol can be performed as follows: For one well of a 6-well plate, we transfect using 100 nM as final concentration of siRNA. Following RNAiFect protocol, we seed, the day before transfection, 2-4×10^5 cells per well in 3 ml of an appropriate growth medium, containing DMEM, 10% serum, antibiotics and glutamine, and incubate cells under normal growth conditions (37° C. and 5% CO2). On the day of transfection, cells have to be at 30-50% confluence. We dilute 15 ul of 20 uM siRNA duplex (corresponding to 100 nM final concentration) in 85 ul of Buffer EC-R, to give a final volume of 100 ul, and mix by vortexing. For complex formation, we add 19 ul of RNAiFect Transfection Reagent to the diluted siRNA and mix by pipetting or vortexing. After incubating the samples for 10-15 minutes at room temperature to allow formation of transfection complexes, we add the complexes drop-wise onto the cells with 2.9 ml of fresh growth medium low in antibiotics. After swirling the plates to ensure uniform distribution of the transfection complexes, we incubate the cells under their normal growth conditions. The day after, the complexes are removed and fresh and complete growth medium is added. To monitor gene silencing, cells are collected at 24, 48 and 72 hours post-transfection. The Lipofectamine 2000 Reagent protocol is quite similar. The day before transfection, we seed 2-4×10^5 cells per well in 3 ml of an appropriate growth medium, containing DMEM, 10% serum, antibiotics and glutamine, and incubate cells under normal growth conditions (37° C. and 5% CO2). On the day of transfection, cells have to be at 30-50% confluence. We dilute 12.5 ul of 20 uM siRNA duplex (corresponding to 100 nM final concentration) in 250 ul of DMEM, to give a final volume of 262.5 ul, and mix. Also, 6 ul of Lipofectamine 2000 is diluted in 250 ul of DMEM and mixed. After a 5 minutes incubation at room temperature, the diluted oligomer and the diluted Lipofectamine are combined to allow complex formation during a 20 minutes incubation at room temperature. […]

Molecule	IOP reduction (% of the control) [1]	% of gene transcript level (AC2; 24 h siRNA treatment) [%]	% of gene transcript level (AC2; 48 h siRNA treatment) [%]
CCN[C@H]1C[C@H](C)S(=O)(=O)c2sc(S(N)(=O)=O)cc21 [Dorzolamide, reference compound]	16.41 ± 2.38 % of the control	–	–
CC(C)OC(=O)CCC/C=C\C[C@@H]1[C@@H](CC[C@@H](O)CCc2ccccc2)[C@H](O)C[C@@H]1O [Latanoprost, latanoprost, reference compound]	25.46 ± 5.24 % of the control	–	–
AC2 siRNA2: siRNA against AC2: rabbit sequence identical to human SEQ. ID. 54 (CTTCCCTGAGGATCCTCAA; listed as DNA, chemistry not given here; listed as Homo sapiens)	–	37.97 ± 9.78	61.45 ± 9.62
AC2 siRNA3: siRNA against AC2: rabbit sequence identical to human SEQ. ID. 66 (CTTCACTTGGTTCACTGGA; listed as DNA, chemistry not given here; listed as Homo sapiens)	–	35.30 ± 9.73	51.14 ± 16.49
ADRB1: siRNA against ADRB1: rabbit sequence identical to human SEQ. ID. 105 (CGACCCCAAGTGCTGCGAC; listed as DNA, chemistry not given here; listed as Homo sapiens)	28.04 ± 2.98 % of the control	–	–
AGTR2: siRNA against AGTR2: rabbit sequence identical to human SEQ. ID. 774 (GCATCTTATATAGTTCCCC; listed as DNA, chemistry not given here; listed as Homo sapiens)	11.22 ± 1.53 % of the control	–	–
ATP1A1: siRNA against ATP1A1: rabbit sequence identical to human SEQ. ID. 1399 (CTGGAACTCTGACTCAGAA; listed as DNA, chemistry not given here; listed as Homo sapiens)	18.13 ± 1.39 % of the control	–	–
ATP1B2: siRNA against ATP1B2: rabbit sequence identical to human SEQ. ID. 1820 (GTTCCACGTGAACTACACA; listed as DNA, chemistry not given here; listed as Homo sapiens)	16.32 ± 0.91 % of the control	–	–
